{"source": "patent US20130195926A1", "about": "“MODULATION OF NITRIC OXIDE SIGNALING TO NORMALIZE TUMOR VASCULATURE” (The General Hospital Corporation, priority 2007, published 2013)", "key": {"[1]": {"system": "nNOS", "assay": "Western blot of nNOS knockdown in cultured nNOS shRNA-transfected U87 cells", "format": "cell-based, human", "protocol": "U87MG (American Type Culture Collection HTB-14) and GL261 (generous gift from Dr. G. Yancey Gillespie at University of Alabama) tumor cells were cultured in Dulbecco's Modified Eagle's Medium with 10% fetal bovine serum at 37° C. in a humidified 5% CO2 incubator. The following short-hairpin RNAs (shRNAs) for nNOS were designed using a commercial service program for small interfering RNA (siRNA) target finder (http://www.ambion.com/techlib/misc/siRNA_finder.html): nNOS-shRNA58, CAAAGAGATCGACACCATC (sense), […] (antisense); nNOSshRNA97, CACGCATGTCTGGAAAGGC (sense), […](antisense); nNOS-shRNA150, GGTCTATCCAATGTCCACA (sense), […] (antisense). The DNA oligonucleotides consist of a 19-nucleotide sense siRNA sequence linked to its reverse complementary antisense siRNA sequence by a short spacer (TTCAAGAGA).\nEach DNA oligonucleotide was prepared with nucleotide overhangs with BamHI and HindIII restriction sites added to the 5′ and 3′ end of the DNA oligonucleotides and subcloned into the pSilencer 3.1 H-1-hygro (Ambion) that allows transcription of the shRNA. These expression vectors were stably transfected into U87MG cells using LipofectAMINE 2000 (Invitrogen) following the manufacturer's instruction.\nThe stably transfected cells were selected with 80 μg/ml of hygromycin B. The expression of nNOS protein in U87 tumor cells and tissues was determined by'Western blot analysis. […]\nEqual amounts of 60 micrograms of protein per sample were separated on 7.5% SDS polyacrylamide gels, transferred onto polyvinylidene fluoride membrane (Millipore), incubated with primary antibodies followed by secondary antibodies (the same antibodies used in immunohistochemistry studies. See Immunohistochemistry methods below), and detected using enhanced chemiluminescence (GE Healthcare) by exposure on autoradiography films (Kodak) (Xu, L., et al. 2005 Cancer Res. 65, 5711-5719; Canneliet, P., et al. 1998 Nature 394, 485-490; Xu, L., et al. 2002 Journal of Biological Chemistry 277, 11368-11374 (2002); and Xu, L., et al. 2004 Clinical Cancer Research 10, 701-707). […]"}, "[2]": {"system": "nNOS", "assay": "Western blot of nNOS knockdown in U87 tumors grown in cranial windows", "format": "in vivo", "settings": "U87 tumors in cranial windows in Rag-1-/- mice", "protocol": "The stably transfected cells were selected with 80 μg/ml of hygromycin B. The expression of nNOS protein in U87 tumor cells and tissues was determined by'Western blot analysis. Cultured U87MG cells washed with PBS and U87MG tumors homogenized by a tissue grinder were solubilized in 40 mM Tris-HCl, pH 6.8, 2% SDS, 10% glycerol, 1% β-mercaptoethanol, 0.01% bromophenol blue with one Complete Mini Protease Inhibitor Cocktail tablet (Roche Diagnostics) per 50 ml buffer.\nEqual amounts of 60 micrograms of protein per sample were separated on 7.5% SDS polyacrylamide gels, transferred onto polyvinylidene fluoride membrane (Millipore), incubated with primary antibodies followed by secondary antibodies (the same antibodies used in immunohistochemistry studies. See Immunohistochemistry methods below), and detected using enhanced chemiluminescence (GE Healthcare) by exposure on autoradiography films (Kodak) (Xu, L., et al. 2005 Cancer Res. 65, 5711-5719; Canneliet, P., et al. 1998 Nature 394, 485-490; Xu, L., et al. 2002 Journal of Biological Chemistry 277, 11368-11374 (2002); and Xu, L., et al. 2004 Clinical Cancer Research 10, 701-707).\nRecombination activating gene 1 (Rag-1^−/−) mice backcrossed to C57BL/6 background or severe combined immunodeficiency (SCID) mice, bred and maintained in an gnotobiotic animal facility, were used. To obtain source tumor tissue, U87 tumor cells in culture (1×10^6 cells) were injected subcutaneously into Rag-1^−/− or SCID mice matching the recipient mice. When the tumor reached about 8 mm in diameter, it was excised after euthanasia and a small piece (about 1 mm^3) of viable tumor tissue was implanted into a cranial window or subcutaneously into the calf area of the right hindlegs of the mice as previously described (Kashiwagi, S., et al. 2005 J. Clin. Invest. 115, 1816-1827; Kozin, S. V., et al. 2001 Cancer Research 61, 39-44). […]\nU87 with nNOS shRNA (shRNA58, shRNA97, and shRNA150) were grown in cranial windows in Rag-1^−/− mice. Expression of nNOS in these tumors was determined by Western blot analysis. […]"}, "[3]": {"system": "U87 tumors", "assay": "Fractionated radiation therapy of U87 tumors grown in the hind leg", "format": "in vivo, mice", "settings": "3 daily fractions of 8 Gy, compared to irradiated U87MG tumor bearing animals", "protocol": "When tumors grown in the hindleg reached about 100 mm^3, animals were randomly assigned to radiation or control group (day 0). In the radiation groups, tumors were locally irradiated with three daily fractions, 8 Gy each, using a ^137Cs gamma irradiator (Hranitzky, E. B., et al. 1973 Radiology 107, 641-644) at a dose rate of approximately 5 Gy/min. The details of irradiation are described elsewhere (Kozin, S. V., et al. 2001 Cancer Research 61, 39-44). Tumor size was measured with a caliper at least every other day. The time taken for tumor to increase in volume 2×, 3×, 4×, 5×, 6×, and 7× of the initial volume (V0) was determined. Tumor growth delay was calculated as the difference of this parameter between irradiated tumors and nonradiated control tumors of the same genotype. Mice were euthanized when the tumors reached 12 mm in diameter. Survival time of individual animals (spontaneous death or by euthanasia at maximum tumor size) was determined after the start of radiation/control treatment.\nThe effect of radiation treatment on U87MG, U87-shRNA58 and U87-shRNA150 tumors was determined. Tumors were grown subcutaneously in the hind leg of Rag-1^−/− mice. When tumors reached ˜100 mm^3, they were randomly assigned to control and radiation treatment groups. […] Tumor growth and overall animal survival were monitored. […]"}}}
{"substance": "shRNA58: short-hairpin RNA for nNOS, CAAAGAGATCGACACCATC (sense), GATGGTGTCGATCTCTTTGTT (antisense), in pSilencer 3.1 H-1-hygro, stably transfected into U87MG", "values": [{"measurement": "Knockdown efficiency of nNOS in vitro", "setting": "[1]", "value": 99, "unit": "%"}, {"measurement": "Knockdown efficiency of nNOS in vivo", "setting": "[2]", "value": 98, "unit": "%"}, {"measurement": "animal survival after radiation treatment", "setting": "[3]", "value": "Significant extension"}]}
{"substance": "shRNA150: short-hairpin RNA for nNOS, GGTCTATCCAATGTCCACA (sense), TGTGGACATTGGATAGACCTT (antisense), in pSilencer 3.1 H-1-hygro", "values": [{"measurement": "Knockdown efficiency of nNOS in vitro", "setting": "[1]", "value": 99, "unit": "%"}, {"measurement": "Knockdown efficiency of nNOS in vivo", "setting": "[2]", "value": 96, "unit": "%"}, {"measurement": "animal survival after radiation treatment", "setting": "[3]", "value": "Significant extension"}]}
